What was measured:
Format in all cases: cell-based
[1] = test system: HIV-1 patient-derived test vectors with site-directed reverse transcriptase mutations; test: phenotypic drug resistance test, site-directed reverse transcriptase mutants in patient backgrounds
Description: In addition, using conventional technique, the T369I mutation was introduced into a resistance test vector comprising PR-RT segment derived from patient sample 62, which comprises mutations A62V, Q102K, K103N, K122E, D123N, C162S, D177E, 1178L, M184V, T200A, Q207E, T215Y, P243S, V245Q, A272P and R277K in reverse transcriptase. Among these mutations, K103N correlates with resistance to a number of NNRTIs, including NVP. This patient sample was tested for resistance to an NNRTI using the methods described above.
(§1) To further analyze the effects of N348I, T369I, and E399D on NNRTI resistance, an additional series of site directed mutants was constructed in non-wild-type backgrounds. In particular, site-directed mutants comprising the N348I, T369I, or E399D mutation were constructed in POL-containing test vectors obtained from three different patient samples. Results from these experiments are presented as FIG. 11.
as §1, with “on AZT” for “on NNRTI”, “the N3481,” for “the N348I,”, “from two” for “from three”, “samples.” for “samples. Results from these experiments are presented as FIG. 11.”

[2] = test system: HIV-1 NL4-3 site-directed reverse transcriptase mutants; test: phenotypic drug resistance test, site-directed reverse transcriptase mutants in NL4-3 background (POL segment assay)
Description: Further, a site directed double mutant T3691/K103N was generated using conventional techniques and tested for resistance to an NNRTI using the methods described above.
To assess the effects of mutations at positions 348, 369, and 399, a series of site-directed mutants were constructed in an wild-type (NL4-3) background. The NNRTI susceptibility phenotypes of these mutants were then determined using the POL segment assay according to Example 2.
In particular, site-directed mutants were constructed in an NL4-3 background comprising N348I, T369I, E399D, or the combination of N3481 and T369I.
Next, a series of site-directed mutants were constructed to assess the effects of combinations of N3481, T369I, and E399D with previously recognized NNRTI resistance mutations. In particular, mutants comprising N348I, T369I, and E399D were made in combination with G190S, with K103N, and with the combination of K103R and V179D. The effects of these combinations on DLV, EFV, and NVP susceptibility were tested using the POL segment assay according to the method describe in Example 2. The results from these experiments are presented as FIG. 10.
To assess the specific effects of mutations at positions 348, 369, and 399, a series of site-directed mutants were constructed in an wild-type (NL4-3) background. The AZT susceptibility phenotype of these mutants were then determined with a POL segment assay according to Example 2.
In particular, site-directed mutants were constructed in an NL4-3 background comprising N348I, T3691, E399D, or the combination of N348I and T3691. The FC in AZT susceptibility for each mutant is shown as FIG. 13.

[3] = test system: HIV-1 NL4-3 and IIIB site-directed integrase mutants; test: phenotypic INSTI susceptibility test, site-directed integrase mutants in NL4-3 or IIIB background (RHIN segment assay)
Description: To assess the effects of mutations at positions 97 and 156 of integrase, two site-directed mutants (T97A and K156N) were constructed in two different wild-type (NL4-3 and IIIB) genetic backgrounds. The INSTI susceptibility phenotypes of these mutants to diketo acid 1, diketo acid 2, and L-870,810 were then determined using the RHIN segment assay according to Example 2.
In particular, site-directed mutants were constructed in an NL4-3 or IIIB background comprising either T97A or K156N. The FC in susceptibility to diketo acid 1, diketo acid 2, and L-870,810 for each mutant is shown as FIG. 18.
Next, a series of site-directed mutants were constructed to assess the effects of combinations of T97A and K156N with previously recognized INSTI resistance mutations. In particular, mutants comprising T97A, K156N, and the combination of T97A and K156N were made in combination with three constellations of previously recognized INSI mutations (V721, F121Y, and T125K; N155S; and T66I and M1541). Each of these combinations was made in a IIIB background. The effects of these combinations on diketo acid 1, diketo acid 2, and L-870,810 susceptibility were tested with the RHIN segment assay according to the method described in Example 2.

[4] = test system: HIV-1 (patient-derived RHIN segment); test: phenotypic drug resistance test, resistance test vectors with patient-derived RHIN segment, luciferase, 293 cells
Text: Patient-derived segment(s) corresponding to the entire pol gene, encoding HIV protease, reverse transcriptase (including RNAse H), and integrase (hereinafter “POL”), the portion of pol encoding amino acids 1-305 of reverse transcriptase (hereinafter “PR-RT”), the portion of pol encoding amino acids 319-440 of reverse transcriptase (including RNAse H), and integrase (hereinafter “RHIN”), were amplified by the reverse transcription-polymerase chain reaction method (RT-PCR) using viral RNA isolated from viral particles present in the plasma or serum of HIV-infected individuals as described below. The portion of pol encoding protease, amino acids 1-531 of reverse transcriptase (including RNase H) (hereinafter “PRRT-RH”), or the portion of pol encoding protease, reverse transcriptase (including RNAse H) and integrase (hereinafter “PRRT-RHIN”), were assembled from amplicons described above by standard recombinant DNA techniques involving a KpnI restriction site at amino acid 400 or a Pin A1 site at amino acid 315.
Virus was pelleted by centrifugation at 20,400×g for 60 min from plasma (typically, 1 ml) prepared from blood samples collected in evacuated tubes containing either EDTA, acid-citrate dextrose, or heparin as an anticoagulant. Virus particles were disrupted by resuspending the pellets in 200 [1.1 of lysis buffer (4 M guanidine thiocyanate, 0.1 M Tris HCl (pH 8.0), 0.5% sodium lauryl sarcosine, 1% dithiothreitol). RNA was extracted from viral lysates by using oligo(dT) linked to magnetic beads (Dynal, Oslo, Norway). Reverse transcription was performed with Superscript III (Invitrogen) at 50 degrees for 1 hour using primer 1.
From the resultant cDNA either POL or RHIN sequences were amplified using the Advantage High Fidelity PCR kit (BD Biosciences; Clontech). POL amplification products are made using forward Primer 3 containing an Apal site and reverse Primer 4 containing a Xho 1 site. RHIN amplification products are made using forward Primer 2 containing a P1NA1 site and reverse Primer 4 containing a Xho 1 site.
A retroviral vector designed to measure antiretroviral drug susceptibility was constructed by using an infectious molecular clone of HIV-1. The vector, referred to herein as an indicator gene viral vector (IGVV), is replication defective and contains a luciferase expression cassette inserted within a deleted region of the envelope (env) gene. The IGVV is described in U.S. Pat. No. 5,837,464 (International Publication Number WO 97/27319) which is hereby incorporated by reference in its entirety. This retroviral vector was further modified to allow insertion of either the entire pol gene (POL) or the portion of poi encoding amino acids 319-440 of reverse transcriptase, the RNase H portion of reverse transcriptase, and integrase (REIN) by engineering an Xho l restriction enzyme recognition site into vif. Prior to doing this, an Xho 1 site in nef was deleted. Resistance Test vectors (RTVs) were constructed by incorporating amplified POL or RHIN into the IGVV by using Apal and Xhol or PinAI and Xho 1 restriction sites respectively. RTVs were prepared as libraries (pools) in order to capture and preserve the pol or RHIN sequence heterogeneity of the virus in the patient. POL amplification products were digested with Apal and Xhol, purified by agarose gel electrophoresis, and ligated to ApaI- and Xhol-digested IGVV DNA. RHIN amplification products were digested with PinAI and Xho/, purified by agarose gel electrophoresis, and ligated to PinAI and Xhol-digested IGVV DNA. Ligation reactions were used to transform competent Escherichia coli (Invitrogen, Carlsbad, Calif.). An aliquot of each transformation was plated onto agar, and colony counts were used to estimate the number of patient-derived segments represented in each RTV library. RTV libraries that comprised less than 50 members are not considered representative of the patient virus. […]

| Compound | change in resistance on addition of mutation ([1]; E399D mutation, patient 45 or patient 50 background) | change in resistance on addition of mutation ([1]; N348I and T369I mutations, all tested patient backgrounds (patients 45, 50)) | FC in susceptibility ([2]; site-directed mutant E399D in NL4-3 background) | FC in susceptibility ([2]; site-directed mutant N348I and T369I combination in NL4-3 background) | FC in susceptibility ([2]; site-directed mutant N348I in NL4-3 background) | fold change for IC50 ([2]; site-directed mutant T369I in NL4-3 background) [fold] | effect of mutation on resistance ([3]; T97A alone or with V72I/F121Y/T125K, N155S, or T66I/M154I, IIIB background) | effect of mutation on susceptibility ([3]; integrase K156N in NL4-3 and IIIB backgrounds) | effect of mutation on susceptibility ([3]; integrase T97A in NL4-3 and IIIB backgrounds) | FC in susceptibility relative to wild-type (NL4-3) ([4]; nine of 128 patient samples, containing integrase K156N) | FC in susceptibility relative to wild-type (NL4-3) ([4]; three of 128 patient samples, containing integrase T97A) |
| --- | --- | --- | --- | --- | --- | --- | --- | --- | --- | --- | --- |
| Cc1cn([C@H]2C[C@H](N=[N+]=[N-])[C@@H](CO)O2)c(=O)[nH]c1=O [AZT] | did not significantly increase | increased resistance | < 2 | > 2 | > 2 | > 2 |  |  |  |  |  |
| O=C(NCc1ccc(F)cc1)c1nc(N2CCCCS2(=O)=O)c2cccnc2c1O [L-870,810] |  |  |  |  |  |  | increased resistance | increased susceptibility | reduced susceptibility | < 0.5 | increased FC |

From US8637252B2, “Methods and compositions for determining altered susceptibility of HIV-1 to anti-HIV drugs” (Monogram Biosciences, Inc., priority 2011, dated 2014)
